Data reported in patent US20230220021A1, “CYCLIC PEPTIDE INHIBITORS OF PSD-95 AND USES THEREOF” (University of Copenhagen, priority 2020, published 2023).

target: T1, PSD-95-PDZ2 (Homo sapiens, UniProt P78352); assay: Fluorescence polarization (FP) competition assay against cyclic nNOS TAMRA probe; type: binding; settings: FP competition, cyclic nNOS TAMRA probe; mean of triplicates; N.B. = not binding; read-out: Ki
T1 construct: 7xHis (N); made in house; host or cells: Escherichia coli B21 pLys (for the mutants, 'as previously described')
T1 sequence (P78352 160-246 limits assumed): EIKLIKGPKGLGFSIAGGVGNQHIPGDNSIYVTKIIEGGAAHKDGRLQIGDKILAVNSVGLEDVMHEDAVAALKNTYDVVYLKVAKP

Row | Compound | Ki [µM]
1 | CC[C@H](C)[C@@H]1NC(=O)[C@H]([C@@H](C)O)NC(=O)[C@H](CCCCN)N(C)C(=O)[C@@H]2CCCN2C(=O)[C@H]([C@@H](C)O)NC(=O)CNC(=O)[C@H](CC(=O)O)NC(=O)CNC(=O)[C@H]([C@@H](C)O)NC(=O)[C@H](Cc2ccccc2)NC(=O)[C@H]([C@@H](C)O)NC(=O)[C@H]([C@@H](C)O)NC(=O)[C@H](CCC(=O)O)NC(=O)[C@H](CC(C)C)NC(=O)[C@H](Cc2c[nH]cn2)NC(=O)[C@H]([C@@H](C)O)NC(=O)[C@H](CCC(N)=O)NC(=O)CNC(=O)[C@H]2CCCN2C(=O)[C@H](CCC(N)=O)NC(=O)[C@H]([C@@H](C)O)NC(=O)[C@H](C(C)C)NC(=O)[C@H](CCCNC(=N)N)NC1=O [compound 96] | 0.48
2 | CC[C@H](C)[C@@H]1NC(=O)[C@H]([C@@H](C)O)NC(=O)[C@H](CCCCN)NC(=O)[C@@H]2CCCN2C(=O)[C@H]([C@@H](C)O)NC(=O)CNC(=O)[C@H](CC(=O)O)NC(=O)CNC(=O)[C@H]([C@@H](C)O)NC(=O)[C@H](Cc2ccccc2)NC(=O)[C@H]([C@@H](C)O)NC(=O)[C@H]([C@@H](C)O)NC(=O)[C@H](CCC(=O)O)NC(=O)[C@H](CC(C)C)NC(=O)[C@H](Cc2c[nH]cn2)NC(=O)[C@H]([C@@H](C)O)NC(=O)[C@H](CCC(N)=O)NC(=O)CNC(=O)[C@H]2CCCN2C(=O)[C@H](CCC(N)=O)N(C)C(=O)[C@H]([C@@H](C)O)NC(=O)[C@H](C(C)C)NC(=O)[C@H](CCCNC(=N)N)NC1=O [compound 102] | 2.2
3 | CC[C@H](C)[C@@H]1NC(=O)[C@H]([C@@H](C)O)NC(=O)[C@H](CCCCN)NC(=O)[C@@H]2CCCN2C(=O)[C@H]([C@@H](C)O)NC(=O)CNC(=O)[C@H](CC(=O)O)NC(=O)CNC(=O)[C@H]([C@@H](C)O)NC(=O)[C@H](Cc2ccccc2)NC(=O)[C@H]([C@@H](C)O)NC(=O)[C@H]([C@@H](C)O)NC(=O)[C@H](CCC(=O)O)NC(=O)[C@H](CC(C)C)NC(=O)[C@H](Cc2c[nH]cn2)NC(=O)[C@@H]([C@H](C)O)NC(=O)[C@H](CCC(N)=O)NC(=O)CNC(=O)[C@H]2CCCN2C(=O)[C@H](CCC(N)=O)NC(=O)[C@H]([C@@H](C)O)NC(=O)[C@H](C(C)C)NC(=O)[C@H](CCCNC(=N)N)NC1=O [compound 112] | 14.6
4 | CC[C@H](C)[C@@H]1NC(=O)[C@H]([C@@H](C)O)NC(=O)[C@H](CCCCN)NC(=O)[C@@H]2CCCN2C(=O)[C@H]([C@@H](C)O)NC(=O)CNC(=O)[C@H](CC(=O)O)NC(=O)CNC(=O)[C@H]([C@@H](C)O)NC(=O)[C@H](Cc2ccccc2)NC(=O)[C@H]([C@@H](C)O)NC(=O)[C@H]([C@@H](C)O)NC(=O)[C@H](CCC(=O)O)NC(=O)[C@H](CC(C)C)NC(=O)[C@@H](Cc2c[nH]cn2)NC(=O)[C@H]([C@@H](C)O)NC(=O)[C@H](CCC(N)=O)NC(=O)CNC(=O)[C@H]2CCCN2C(=O)[C@H](CCC(N)=O)NC(=O)[C@H]([C@@H](C)O)NC(=O)[C@H](C(C)C)NC(=O)[C@H](CCCNC(=N)N)NC1=O [compound 113] | 13.1
5 | CC[C@H](C)[C@@H]1NC(=O)[C@H]([C@@H](C)O)NC(=O)[C@H](CCCCN)NC(=O)[C@@H]2CCCN2C(=O)[C@H]([C@@H](C)O)NC(=O)CNC(=O)[C@@H](CC(=O)O)NC(=O)CNC(=O)[C@H]([C@@H](C)O)NC(=O)[C@H](Cc2ccccc2)NC(=O)[C@H]([C@@H](C)O)NC(=O)[C@H]([C@@H](C)O)NC(=O)[C@H](CCC(=O)O)NC(=O)[C@H](CC(C)C)NC(=O)[C@H](Cc2c[nH]cn2)NC(=O)[C@H]([C@@H](C)O)NC(=O)[C@H](CCC(N)=O)NC(=O)CNC(=O)[C@H]2CCCN2C(=O)[C@H](CCC(N)=O)NC(=O)[C@H]([C@@H](C)O)NC(=O)[C@H](C(C)C)NC(=O)[C@H](CCCNC(=N)N)NC1=O [compound 120] | 0.59

Continued, values first:

Row | Ki [µM] | Compound
6 | 2 | CC[C@H](C)[C@@H]1NC(=O)[C@H]([C@@H](C)O)NC(=O)[C@H](CCCCN)NC(=O)[C@@H]2CCCN2C(=O)[C@@H]([C@H](C)O)NC(=O)CNC(=O)[C@H](CC(=O)O)NC(=O)CNC(=O)[C@H]([C@@H](C)O)NC(=O)[C@H](Cc2ccccc2)NC(=O)[C@H]([C@@H](C)O)NC(=O)[C@H]([C@@H](C)O)NC(=O)[C@H](CCC(=O)O)NC(=O)[C@H](CC(C)C)NC(=O)[C@H](Cc2c[nH]cn2)NC(=O)[C@H]([C@@H](C)O)NC(=O)[C@H](CCC(N)=O)NC(=O)CNC(=O)[C@H]2CCCN2C(=O)[C@H](CCC(N)=O)NC(=O)[C@H]([C@@H](C)O)NC(=O)[C@H](C(C)C)NC(=O)[C@H](CCCNC(=N)N)NC1=O [compound 121]
7 | 6.7 | CC[C@H](C)[C@@H]1NC(=O)[C@H]([C@@H](C)O)NC(=O)[C@H](CCCCN)NC(=O)[C@H]2CCCN2C(=O)[C@H]([C@@H](C)O)NC(=O)CNC(=O)[C@H](CC(=O)O)NC(=O)CNC(=O)[C@H]([C@@H](C)O)NC(=O)[C@H](Cc2ccccc2)NC(=O)[C@H]([C@@H](C)O)NC(=O)[C@H]([C@@H](C)O)NC(=O)[C@H](CCC(=O)O)NC(=O)[C@H](CC(C)C)NC(=O)[C@H](Cc2c[nH]cn2)NC(=O)[C@H]([C@@H](C)O)NC(=O)[C@H](CCC(N)=O)NC(=O)CNC(=O)[C@H]2CCCN2C(=O)[C@H](CCC(N)=O)NC(=O)[C@H]([C@@H](C)O)NC(=O)[C@H](C(C)C)NC(=O)[C@H](CCCNC(=N)N)NC1=O [compound 122]
8 | 23.2 | CC[C@H](C)[C@@H]1NC(=O)[C@H]([C@@H](C)O)NC(=O)[C@@H](CCCCN)NC(=O)[C@@H]2CCCN2C(=O)[C@H]([C@@H](C)O)NC(=O)CNC(=O)[C@H](CC(=O)O)NC(=O)CNC(=O)[C@H]([C@@H](C)O)NC(=O)[C@H](Cc2ccccc2)NC(=O)[C@H]([C@@H](C)O)NC(=O)[C@H]([C@@H](C)O)NC(=O)[C@H](CCC(=O)O)NC(=O)[C@H](CC(C)C)NC(=O)[C@H](Cc2c[nH]cn2)NC(=O)[C@H]([C@@H](C)O)NC(=O)[C@H](CCC(N)=O)NC(=O)CNC(=O)[C@H]2CCCN2C(=O)[C@H](CCC(N)=O)NC(=O)[C@H]([C@@H](C)O)NC(=O)[C@H](C(C)C)NC(=O)[C@H](CCCNC(=N)N)NC1=O [compound 123]
9 | 9 | CC[C@H](C)[C@@H]1NC(=O)[C@H]([C@@H](C)O)NC(=O)[C@H](CCCCN)NC(=O)[C@@H]2CCCN2C(=O)[C@H]([C@@H](C)O)NC(=O)CNC(=O)[C@H](CC(=O)O)NC(=O)CNC(=O)[C@H]([C@@H](C)O)NC(=O)[C@H](Cc2ccccc2)NC(=O)[C@H]([C@@H](C)O)NC(=O)[C@H]([C@@H](C)O)NC(=O)[C@H](CCC(=O)O)NC(=O)[C@H](CC(C)C)NC(=O)[C@H](Cc2c[nH]cn2)NC(=O)[C@H]([C@@H](C)O)NC(=O)[C@H](CCC(N)=O)NC(=O)CNC(=O)[C@H]2CCCN2C(=O)[C@H](CCC(N)=O)NC(=O)[C@H]([C@@H](C)O)NC(=O)[C@H](C(C)C)NC(=O)[C@@H](CCCNC(=N)N)NC1=O [compound 126]
10 | 1.83 | CC[C@H](C)[C@@H]1NC(=O)[C@H]([C@@H](C)O)NC(=O)[C@H](CCCCN)NC(=O)[C@@H]2CCCN2C(=O)[C@H]([C@@H](C)O)NC(=O)CNC(=O)[C@H](CC(=O)O)NC(=O)CNC(=O)[C@H]([C@@H](C)O)NC(=O)[C@H](Cc2ccccc2)NC(=O)[C@H]([C@@H](C)O)NC(=O)[C@H]([C@@H](C)O)NC(=O)[C@H](CCC(=O)O)NC(=O)[C@H](CC(C)C)NC(=O)[C@H](Cc2c[nH]cn2)NC(=O)[C@H]([C@@H](C)O)NC(=O)[C@H](CCC(N)=O)NC(=O)CNC(=O)[C@H]2CCCN2C(=O)[C@H](CCC(N)=O)NC(=O)[C@@H]([C@H](C)O)NC(=O)[C@H](C(C)C)NC(=O)[C@H](CCCNC(=N)N)NC1=O [compound 128]
